Measured values: ChEMBL document CHEMBL4257223, “Histone demethylase inhibitors” (2016)

Columns and labels:
[1] = molecular target: T1, Lysine-specific demethylase 4C (Homo sapiens, UniProt Q9H3R0); experiment: Inhibition of recombinant human N-terminal GST-tagged JMJD2C (2 to 372 residues) expressed in baculovirus infected sf9 cells using H3K9me3-biotin peptide as substrate after 30 mins in presence of alpha-ketoglutaric acid by LANCE TR-FRET assay
T1 sequence (Q9H3R0 whole entry): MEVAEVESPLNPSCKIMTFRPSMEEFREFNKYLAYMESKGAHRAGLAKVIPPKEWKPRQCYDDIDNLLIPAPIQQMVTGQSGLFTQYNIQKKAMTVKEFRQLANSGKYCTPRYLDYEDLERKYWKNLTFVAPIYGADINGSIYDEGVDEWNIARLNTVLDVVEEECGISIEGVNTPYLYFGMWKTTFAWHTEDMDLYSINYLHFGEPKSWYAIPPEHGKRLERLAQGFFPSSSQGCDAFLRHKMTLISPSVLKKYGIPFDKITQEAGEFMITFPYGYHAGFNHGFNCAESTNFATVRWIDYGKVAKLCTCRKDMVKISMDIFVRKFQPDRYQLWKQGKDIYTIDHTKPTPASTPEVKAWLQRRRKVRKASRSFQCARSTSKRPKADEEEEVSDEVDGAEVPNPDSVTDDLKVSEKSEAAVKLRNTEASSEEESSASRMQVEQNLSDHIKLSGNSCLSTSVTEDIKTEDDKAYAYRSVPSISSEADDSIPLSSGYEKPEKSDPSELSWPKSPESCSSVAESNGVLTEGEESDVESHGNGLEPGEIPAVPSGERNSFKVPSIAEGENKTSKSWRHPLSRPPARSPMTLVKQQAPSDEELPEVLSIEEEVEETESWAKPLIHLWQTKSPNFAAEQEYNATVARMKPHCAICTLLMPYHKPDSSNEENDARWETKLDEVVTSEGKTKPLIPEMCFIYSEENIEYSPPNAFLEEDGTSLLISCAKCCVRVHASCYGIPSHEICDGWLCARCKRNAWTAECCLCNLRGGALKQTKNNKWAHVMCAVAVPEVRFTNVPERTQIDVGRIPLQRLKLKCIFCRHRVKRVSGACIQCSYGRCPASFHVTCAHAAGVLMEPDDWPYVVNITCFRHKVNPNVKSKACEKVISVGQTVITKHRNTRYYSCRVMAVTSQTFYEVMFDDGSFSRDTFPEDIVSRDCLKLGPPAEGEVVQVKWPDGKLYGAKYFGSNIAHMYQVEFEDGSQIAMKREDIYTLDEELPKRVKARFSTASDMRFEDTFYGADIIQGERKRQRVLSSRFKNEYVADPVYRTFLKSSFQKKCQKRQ

[2] = molecular target: T2, Lysine-specific demethylase 2B (Homo sapiens, UniProt Q8NHM5); experiment: Inhibition of recombinant human C-terminal FLAG-tagged FBXL10 (1 to 650 residues) expressed in baculovirus infected sf9 cells using H3K36me2-biotin peptide as substrate after 30 mins in presence of alpha-ketoglutaric acid by AlphaScreen assay
T2 sequence (Q8NHM5 whole entry): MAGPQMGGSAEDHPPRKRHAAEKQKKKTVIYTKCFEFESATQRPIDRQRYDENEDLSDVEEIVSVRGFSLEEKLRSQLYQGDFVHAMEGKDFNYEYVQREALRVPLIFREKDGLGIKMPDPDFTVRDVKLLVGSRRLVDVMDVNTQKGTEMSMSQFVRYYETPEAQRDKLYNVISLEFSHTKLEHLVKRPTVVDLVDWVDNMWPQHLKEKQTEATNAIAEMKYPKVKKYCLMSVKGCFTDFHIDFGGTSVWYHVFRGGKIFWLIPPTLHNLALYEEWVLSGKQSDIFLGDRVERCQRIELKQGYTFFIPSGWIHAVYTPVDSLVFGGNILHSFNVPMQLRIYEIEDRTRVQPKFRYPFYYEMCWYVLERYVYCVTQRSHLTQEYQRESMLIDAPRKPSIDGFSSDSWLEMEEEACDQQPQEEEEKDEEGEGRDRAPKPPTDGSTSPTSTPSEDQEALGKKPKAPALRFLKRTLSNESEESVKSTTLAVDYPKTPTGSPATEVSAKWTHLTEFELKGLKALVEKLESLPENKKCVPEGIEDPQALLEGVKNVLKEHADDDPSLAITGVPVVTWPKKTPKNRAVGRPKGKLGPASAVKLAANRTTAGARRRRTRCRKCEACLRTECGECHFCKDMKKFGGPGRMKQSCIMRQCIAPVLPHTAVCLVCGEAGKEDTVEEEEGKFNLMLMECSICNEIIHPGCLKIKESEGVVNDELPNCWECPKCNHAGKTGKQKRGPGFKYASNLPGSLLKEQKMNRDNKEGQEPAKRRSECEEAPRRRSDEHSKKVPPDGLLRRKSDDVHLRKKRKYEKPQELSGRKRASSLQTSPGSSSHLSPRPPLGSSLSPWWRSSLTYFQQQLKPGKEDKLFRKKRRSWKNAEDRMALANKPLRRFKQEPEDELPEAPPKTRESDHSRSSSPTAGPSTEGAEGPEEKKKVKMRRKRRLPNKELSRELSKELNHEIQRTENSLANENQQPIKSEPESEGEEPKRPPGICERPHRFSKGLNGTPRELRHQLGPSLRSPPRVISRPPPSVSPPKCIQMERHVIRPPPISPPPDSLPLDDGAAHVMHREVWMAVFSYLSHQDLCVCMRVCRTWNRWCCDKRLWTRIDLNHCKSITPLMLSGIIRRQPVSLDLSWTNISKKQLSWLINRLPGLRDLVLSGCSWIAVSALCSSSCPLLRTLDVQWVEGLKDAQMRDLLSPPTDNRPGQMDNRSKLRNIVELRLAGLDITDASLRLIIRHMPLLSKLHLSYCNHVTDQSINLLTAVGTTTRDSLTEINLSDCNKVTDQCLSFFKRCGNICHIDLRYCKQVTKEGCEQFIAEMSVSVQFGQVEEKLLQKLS

[3] = molecular target: Lysine-specific demethylase 5A/5B (Homo sapiens, UniProt P29375+Q9UGL1); experiment: Inhibition of KDM5A/KDM5B in human ZR-75-1 cells assessed as increase in H3K4me3 level after 72 hrs by fluorometric immunoblot analysis; type: cell-based
[4] = molecular target: Lysine-specific demethylase 5B (Homo sapiens, UniProt Q9UGL1); experiment: Inhibition of recombinant human N-terminal His-FLAG tagged JARID1B (2 to 751 residues) expressed in baculovirus infected sf9 cells using H3K4me3-biotin peptide as substrate after 30 mins in presence of alpha-ketoglutaric acid by LANCE TR-FRET assay
Chain of Lysine-specific demethylase 5B (Q9UGL1 whole entry, the tested form may be a part): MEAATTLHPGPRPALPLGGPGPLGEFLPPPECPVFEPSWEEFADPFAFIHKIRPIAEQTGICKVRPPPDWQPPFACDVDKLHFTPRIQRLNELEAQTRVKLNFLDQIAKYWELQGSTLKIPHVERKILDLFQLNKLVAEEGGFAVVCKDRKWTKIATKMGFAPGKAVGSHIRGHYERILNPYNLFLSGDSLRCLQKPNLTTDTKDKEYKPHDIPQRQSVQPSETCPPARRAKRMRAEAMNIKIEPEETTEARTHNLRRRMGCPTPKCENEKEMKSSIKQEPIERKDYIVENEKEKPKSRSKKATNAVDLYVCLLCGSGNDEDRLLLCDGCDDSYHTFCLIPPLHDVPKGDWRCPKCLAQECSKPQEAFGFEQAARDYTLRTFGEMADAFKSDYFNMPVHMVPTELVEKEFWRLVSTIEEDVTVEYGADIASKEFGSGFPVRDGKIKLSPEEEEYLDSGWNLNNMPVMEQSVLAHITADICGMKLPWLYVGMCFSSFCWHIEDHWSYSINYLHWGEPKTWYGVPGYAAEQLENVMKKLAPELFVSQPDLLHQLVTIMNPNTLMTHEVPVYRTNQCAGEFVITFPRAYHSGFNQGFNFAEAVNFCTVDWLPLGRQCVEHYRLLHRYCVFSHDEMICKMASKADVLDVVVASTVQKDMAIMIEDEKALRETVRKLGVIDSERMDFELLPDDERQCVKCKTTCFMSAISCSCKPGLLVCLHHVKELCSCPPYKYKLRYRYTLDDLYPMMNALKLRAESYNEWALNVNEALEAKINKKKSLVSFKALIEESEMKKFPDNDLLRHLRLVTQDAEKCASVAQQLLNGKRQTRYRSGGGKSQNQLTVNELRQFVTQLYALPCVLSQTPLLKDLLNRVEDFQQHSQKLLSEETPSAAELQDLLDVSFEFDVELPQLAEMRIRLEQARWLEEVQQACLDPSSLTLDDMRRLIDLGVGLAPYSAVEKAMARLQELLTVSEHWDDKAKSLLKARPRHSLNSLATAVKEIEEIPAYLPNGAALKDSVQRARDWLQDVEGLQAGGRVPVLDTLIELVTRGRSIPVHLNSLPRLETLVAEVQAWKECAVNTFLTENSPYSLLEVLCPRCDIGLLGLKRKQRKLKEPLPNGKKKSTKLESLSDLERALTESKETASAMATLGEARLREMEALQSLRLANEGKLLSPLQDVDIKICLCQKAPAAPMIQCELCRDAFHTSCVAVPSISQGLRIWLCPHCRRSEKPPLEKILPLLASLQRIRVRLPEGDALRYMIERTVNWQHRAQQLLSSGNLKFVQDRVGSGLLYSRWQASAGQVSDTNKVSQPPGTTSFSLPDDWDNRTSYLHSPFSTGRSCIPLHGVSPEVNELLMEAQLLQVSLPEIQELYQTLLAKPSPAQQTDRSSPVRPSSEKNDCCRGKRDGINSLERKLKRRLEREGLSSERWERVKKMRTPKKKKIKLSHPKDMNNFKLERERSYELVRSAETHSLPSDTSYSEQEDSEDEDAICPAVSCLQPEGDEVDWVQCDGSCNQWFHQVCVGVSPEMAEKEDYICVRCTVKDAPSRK

- IC50 [1]: 1000 to 10000 nM
- IC50 [2]: 100 to 1000 nM
- IC50 [3]: 1000 to 10000 nM
- IC50 [4]: 100 to 1000 nM
Compound: COc1ccc(-c2c(-c3cc(C(=O)O)ccn3)ncn2C)cc1
